Laboratory results reported in ChEMBL document CHEMBL1145448, “Synthesis and evaluation of tripodal peptide analogues for cellular delivery of phosphopeptides” (J Med Chem, 2007).
Non-standard residues stand in square brackets, D forms with d. Residues, ends and D or L forms follow the SMILES beside them. *: point of attachment. X1 = O=C(O)c1cc(C(=O)*)ccc1-c1c2ccc(=O)cc-2oc2cc(O)ccc12; pY = N[C@@H](Cc1ccc(OP(=O)(O)O)cc1)C(=O)O; 12Ado = NCCCCCCCCCCCC(=O)O

Assays:
[1] = Cytotoxicity against BT20 cells by cell viability assay; format: cell-based; conditions: human, bt-20
[2] = Cellular uptake in BT20 cells in presence of 77 mM sodium azide; format: ADME, cell-based; conditions: human, bt-20

SMILES	Activity [1] [%]	Activity [2]
CC[C@H](C)[C@H](NC(=O)[C@H](CCC(=O)O)NC(=O)[C@H](CCC(=O)O)NC(=O)[C@H](Cc1ccc(OP(=O)(O)O)cc1)NC(=O)CNC(=O)c1ccc(-c2c3ccc(=O)cc-3oc3cc(O)ccc23)c(C(=O)O)c1)C(=O)O (X1-G[pY]EEI-OH)	> 96	–
N=C(N)NCCC[C@H](NC(=O)CCCCCCCCCCCNC(=O)[C@H](CCCNC(=N)N)NC(=O)CCCCCCCCCCCNC(=O)[C@H](CCCCN)NC(=O)CNC(=O)c1ccc(-c2c3ccc(=O)cc-3oc3cc(O)ccc23)c(C(=O)O)c1)C(=O)O (X1-GK[12Ado]R[12Ado]R-OH)	> 96	Active
